Reference: the NIST ThermoML archive (doi:10.1021/je100598x)

Test: cn = amount concentration of the nth substance listed, in mol/dm3
Details: 101 kPa, Liquid, Direct current cell with electrodes

CCCCCCCCCCCC[N+](C)(C)C.[Br-] [dodecyltrimethylammonium bromide] + O
electrical conductivity [S/m]
Details | 303.15 K | 308.15 K | 313.15 K | 318.15 K
c1 = 0.001961 | – | 0.0238 | 0.0261 | 0.0279
c1 = 0.003846 | – | 0.045 | 0.0494 | 0.0531
c1 = 0.00566 | – | 0.0647 | 0.0711 | 0.076
c1 = 0.007407 | – | 0.0833 | 0.0914 | 0.0969
c1 = 0.009091 | – | 0.1007 | 0.1109 | 0.119
c1 = 0.01071 | – | 0.117 | 0.129 | 0.139
c1 = 0.01228 | – | 0.1328 | 0.146 | 0.158
c1 = 0.01379 | – | 0.148 | 0.1623 | 0.175
c1 = 0.01525 | – | 0.162 | 0.178 | 0.1919
c1 = 0.01667 | – | 0.1727 | 0.1907 | 0.206
c1 = 0.01758 | – | 0.177 | 0.197 | 0.215
c1 = 0.01848 | – | 0.1807 | 0.201 | 0.222
c1 = 0.01936 | 0.166 | 0.1837 | 0.205 | 0.226
c1 = 0.02021 | 0.168 | 0.187 | 0.209 | 0.23
c1 = 0.02105 | 0.17 | 0.19 | 0.212 | 0.234
c1 = 0.02188 | 0.172 | 0.1922 | 0.215 | 0.238
c1 = 0.02268 | 0.1741 | 0.195 | 0.218 | 0.242
c1 = 0.02347 | 0.176 | 0.198 | 0.22 | 0.246
c1 = 0.02424 | 0.178 | 0.2 | 0.223 | 0.249
c1 = 0.025 | 0.1805 | 0.203 | 0.226 | 0.252
c1 = 0.02611 | 0.1831 | 0.206 | 0.23 | 0.258
c1 = 0.02718 | 0.186 | 0.21 | 0.234 | 0.263
c1 = 0.02823 | 0.189 | 0.213 | 0.238 | 0.268
c1 = 0.02925 | 0.1912 | 0.217 | 0.242 | 0.272
c1 = 0.03023 | 0.1937 | 0.22 | 0.246 | 0.277
